Test results from publication PMC5392334, “Discovery and characterization of a novel irreversible EGFR mutants selective and potent kinase inhibitor CHMFL-EGFR-26 with a distinct binding mode” (Oncotarget, 2017).

How the values were obtained:
[1] = biological target: T1, PKMYT1 (Homo sapiens, UniProt Q99640); assay: KinomeScan; format: binding; conditions: read-out: % control
T1 construct: purchased DiscoveRx KINOMEscan

[2] = biological target: T2, ADCK3 (Homo sapiens, UniProt Q8NI60); assay: KinomeScan; format: binding; conditions: read-out: % control
T2 construct: purchased DiscoveRx KINOMEscan

[3] = biological target: T3, INSR (Homo sapiens, UniProt P06213); assay: KinomeScan; format: binding; conditions: read-out: % control
T3 construct: purchased DiscoveRx KINOMEscan

[4] = biological target: T4, PFPK5(P.falciparum) (Plasmodium falciparum, UniProt P61075); assay: KinomeScan; format: binding; conditions: read-out: % control
T4 construct: purchased DiscoveRx KINOMEscan

[5] = biological target: T5, CAMK2B (Homo sapiens, UniProt Q13554); assay: KinomeScan; format: binding; conditions: read-out: % control
T5 construct: purchased DiscoveRx KINOMEscan

[6] = biological target: T6, EPHA2 (Homo sapiens, UniProt P29317); assay: KinomeScan; format: binding; conditions: read-out: % control
T6 construct: purchased DiscoveRx KINOMEscan

[7] = biological target: T7, DAPK2 (Homo sapiens, UniProt Q9UIK4); assay: KinomeScan; format: binding; conditions: read-out: % control
T7 construct: purchased DiscoveRx KINOMEscan

[8] = biological target: T8, ABL1(Q252H)-phosphorylated (Homo sapiens, UniProt P00519, Q252H); assay: KinomeScan; format: binding; conditions: read-out: % control
T8 construct: purchased DiscoveRx KINOMEscan

[9] = biological target: T9, PYK2 (Homo sapiens, UniProt Q14289); assay: KinomeScan; format: binding; conditions: read-out: % control
T9 construct: purchased DiscoveRx KINOMEscan

[10] = biological target: T10, FLT3 (Homo sapiens, UniProt P36888); assay: KinomeScan; format: binding; conditions: read-out: % control
T10 construct: purchased DiscoveRx KINOMEscan

[11] = biological target: T11, CDK2 (Homo sapiens, UniProt P24941); assay: KinomeScan; format: binding; conditions: read-out: % control
T11 construct: purchased DiscoveRx KINOMEscan

[12] = biological target: T12, JAK3(JH1domain-catalytic) (Homo sapiens, UniProt P52333); assay: KinomeScan; format: binding; conditions: read-out: % control
T12 construct: JAK3(JH1domain-catalytic); purchased DiscoveRx KINOMEscan

[13] = biological target: T13, CSNK2A2 (Homo sapiens, UniProt P19784); assay: KinomeScan; format: binding; conditions: read-out: % control
T13 construct: purchased DiscoveRx KINOMEscan

[14] = biological target: T14, PAK7 (Homo sapiens, UniProt Q9P286); assay: KinomeScan; format: binding; conditions: read-out: % control
T14 construct: purchased DiscoveRx KINOMEscan

[15] = biological target: T15, MYO3A (Homo sapiens, UniProt Q8NEV4); assay: KinomeScan; format: binding; conditions: read-out: % control
T15 construct: purchased DiscoveRx KINOMEscan

[16] = biological target: T16, FLT4 (Homo sapiens, UniProt P35916); assay: KinomeScan; format: binding; conditions: read-out: % control
T16 construct: purchased DiscoveRx KINOMEscan

[17] = biological target: T17, ICK (Homo sapiens, UniProt Q9UPZ9); assay: KinomeScan; format: binding; conditions: read-out: % control
T17 construct: purchased DiscoveRx KINOMEscan

[18] = biological target: T18, PIP5K1C (Homo sapiens, UniProt O60331); assay: KinomeScan; format: binding; conditions: read-out: % control
T18 construct: purchased DiscoveRx KINOMEscan

[19] = biological target: T19, MAPKAPK2 (Homo sapiens, UniProt P49137); assay: KinomeScan; format: binding; conditions: read-out: % control
T19 construct: purchased DiscoveRx KINOMEscan

[20] = biological target: T20, RIOK3 (Homo sapiens, UniProt O14730); assay: KinomeScan; format: binding; conditions: read-out: % control
T20 construct: purchased DiscoveRx KINOMEscan

[21] = biological target: T21, PIK3CA(Q546K) (Homo sapiens, UniProt P42336, Q546K); assay: KinomeScan; format: binding; conditions: read-out: % control
T21 construct: purchased DiscoveRx KINOMEscan

[22] = tested on: HCC827 (EGFR del19); assay: Anti-proliferation, NSCLC cell lines (CellTiter-Glo); format: cell-based; conditions: Homo sapiens, 72 hours, triplet testing
Experimental: (§1) The human cancer cell lines H1975, HCC827, H2122, CHO, CHL and H1355 were purchased from the American Type Culture Collection (ATCC) (Manassas, VA, USA). PC9 cell line was purchased from the Sigma-Aldrich (St. Louis, MO, USA). A549, H3255 were purchased from Cobioer Biosciences CO., LTD (Nanjing, China). […] A549 and H1355 were cultured in F-12K Nutrient Mixture (kaighn's Modification) (Gibco, USA) with 10% FBS and supplemented with 2% L-glutamine and 1% pen/strep. H3255 was cultured in BEGM media (LONZA, USA) with 10% FBS and supplemented with 2% L-glutamine and 1% pen/strep.

[23] = tested on: H2122 (EGFR wt); assay: as above; format: cell-based; conditions: Homo sapiens, NCI-H2122, 72 hours, triplet testing
Experimental: as §1

[24] = tested on: H1703 (EGFR wt); assay: as above; format: cell-based; conditions: Homo sapiens, NCI-H1703, 72 hours, triplet testing
Experimental: as §1

[25] = tested on: H1355(EGFR wt); assay: as above; format: cell-based; conditions: Homo sapiens, NCI-H1355, 72 hours, triplet testing
Experimental: as §1

[26] = tested on: A549 (EGFR wt); assay: as above; format: cell-based; conditions: Homo sapiens, 72 hours, triplet testing
Experimental: as §1

[27] = tested on: H3255 (EGFRL858R); assay: as above; format: cell-based; conditions: Homo sapiens, NCI-H3255, 72 hours, triplet testing
Experimental: as §1

[28] = tested on: PC-9 (EGFR del19); assay: as above; format: cell-based; conditions: Homo sapiens, 72 hours, triplet testing
Experimental: as §1

[29] = biological target: T22, MINK (Homo sapiens, UniProt Q8N4C8); assay: KinomeScan; format: binding; conditions: read-out: % control
T22 construct: purchased DiscoveRx KINOMEscan

[30] = biological target: T23, SBK1 (Homo sapiens, UniProt Q52WX2); assay: KinomeScan; format: binding; conditions: read-out: % control
T23 construct: purchased DiscoveRx KINOMEscan

[31] = biological target: T24, SGK2 (Homo sapiens, UniProt Q9HBY8); assay: KinomeScan; format: binding; conditions: read-out: % control
T24 construct: purchased DiscoveRx KINOMEscan

[32] = biological target: T25, ARK5 (Homo sapiens, UniProt O60285); assay: KinomeScan; format: binding; conditions: read-out: % control
T25 construct: purchased DiscoveRx KINOMEscan

[33] = biological target: T26, PIM2 (Homo sapiens, UniProt Q9P1W9); assay: KinomeScan; format: binding; conditions: read-out: % control
T26 construct: purchased DiscoveRx KINOMEscan

[34] = biological target: T27, PKAC-beta (Homo sapiens, UniProt P22694); assay: KinomeScan; format: binding; conditions: read-out: % control
T27 construct: purchased DiscoveRx KINOMEscan

[35] = biological target: T28, ANKK1 (Homo sapiens, UniProt Q8NFD2); assay: KinomeScan; format: binding; conditions: read-out: % control
T28 construct: purchased DiscoveRx KINOMEscan

[36] = biological target: T29, CDK4 (Homo sapiens, UniProt P11802); assay: KinomeScan; format: binding; conditions: read-out: % control
T29 construct: purchased DiscoveRx KINOMEscan

[37] = biological target: T30, ABL1(F317L)-phosphorylated (Homo sapiens, UniProt P00519, F317L); assay: KinomeScan; format: binding; conditions: read-out: % control
T30 construct: purchased DiscoveRx KINOMEscan

[38] = biological target: T31, JAK1(JH2domain-pseudokinase) (Homo sapiens, UniProt P23458); assay: KinomeScan; format: binding; conditions: read-out: % control
T31 construct: JAK1(JH2domain-pseudokinase); purchased DiscoveRx KINOMEscan
T31 sequence (P23458 583-855 limits assumed): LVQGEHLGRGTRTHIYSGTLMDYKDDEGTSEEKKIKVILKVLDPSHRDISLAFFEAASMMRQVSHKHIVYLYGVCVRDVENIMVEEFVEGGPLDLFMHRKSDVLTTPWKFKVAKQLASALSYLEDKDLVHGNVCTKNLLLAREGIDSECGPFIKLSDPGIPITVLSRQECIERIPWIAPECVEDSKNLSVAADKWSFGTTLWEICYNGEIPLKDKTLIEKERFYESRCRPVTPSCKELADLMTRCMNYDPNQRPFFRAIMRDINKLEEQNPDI

T13 sequence (P19784 whole entry): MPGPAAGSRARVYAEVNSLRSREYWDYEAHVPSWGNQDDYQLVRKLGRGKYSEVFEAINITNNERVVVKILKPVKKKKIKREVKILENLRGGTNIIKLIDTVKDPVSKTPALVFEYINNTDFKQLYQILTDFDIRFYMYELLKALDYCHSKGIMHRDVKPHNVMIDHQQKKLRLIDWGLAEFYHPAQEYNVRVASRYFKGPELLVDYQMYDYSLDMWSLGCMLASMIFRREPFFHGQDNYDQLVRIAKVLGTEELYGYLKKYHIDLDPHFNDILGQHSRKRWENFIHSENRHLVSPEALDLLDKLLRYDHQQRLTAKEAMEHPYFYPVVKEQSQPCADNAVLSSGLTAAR
T10 sequence (P36888 27-993): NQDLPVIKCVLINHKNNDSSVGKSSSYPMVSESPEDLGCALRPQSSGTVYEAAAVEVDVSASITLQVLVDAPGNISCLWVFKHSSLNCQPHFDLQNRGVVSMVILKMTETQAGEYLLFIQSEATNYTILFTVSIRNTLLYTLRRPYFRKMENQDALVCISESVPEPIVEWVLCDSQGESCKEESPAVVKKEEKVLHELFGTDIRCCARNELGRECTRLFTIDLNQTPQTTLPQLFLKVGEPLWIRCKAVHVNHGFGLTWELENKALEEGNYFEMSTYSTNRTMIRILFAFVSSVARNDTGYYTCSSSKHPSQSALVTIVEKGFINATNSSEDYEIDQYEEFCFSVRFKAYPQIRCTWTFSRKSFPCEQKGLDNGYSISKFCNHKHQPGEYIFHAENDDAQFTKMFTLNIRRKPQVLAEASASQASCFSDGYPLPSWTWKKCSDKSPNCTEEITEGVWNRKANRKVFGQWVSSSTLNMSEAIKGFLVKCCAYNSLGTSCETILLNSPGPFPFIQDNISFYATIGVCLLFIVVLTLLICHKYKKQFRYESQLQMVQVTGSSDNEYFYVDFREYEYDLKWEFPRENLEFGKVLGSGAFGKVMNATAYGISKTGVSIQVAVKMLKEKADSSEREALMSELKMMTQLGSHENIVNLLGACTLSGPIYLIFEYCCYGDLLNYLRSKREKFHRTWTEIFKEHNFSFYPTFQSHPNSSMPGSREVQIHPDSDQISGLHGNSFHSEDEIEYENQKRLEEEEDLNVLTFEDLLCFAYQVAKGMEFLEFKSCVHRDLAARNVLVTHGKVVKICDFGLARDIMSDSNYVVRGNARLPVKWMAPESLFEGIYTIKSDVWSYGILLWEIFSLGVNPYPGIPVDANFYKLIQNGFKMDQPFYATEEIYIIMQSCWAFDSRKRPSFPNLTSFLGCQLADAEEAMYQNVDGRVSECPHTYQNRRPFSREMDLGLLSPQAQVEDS
T28 sequence (Q8NFD2 whole entry): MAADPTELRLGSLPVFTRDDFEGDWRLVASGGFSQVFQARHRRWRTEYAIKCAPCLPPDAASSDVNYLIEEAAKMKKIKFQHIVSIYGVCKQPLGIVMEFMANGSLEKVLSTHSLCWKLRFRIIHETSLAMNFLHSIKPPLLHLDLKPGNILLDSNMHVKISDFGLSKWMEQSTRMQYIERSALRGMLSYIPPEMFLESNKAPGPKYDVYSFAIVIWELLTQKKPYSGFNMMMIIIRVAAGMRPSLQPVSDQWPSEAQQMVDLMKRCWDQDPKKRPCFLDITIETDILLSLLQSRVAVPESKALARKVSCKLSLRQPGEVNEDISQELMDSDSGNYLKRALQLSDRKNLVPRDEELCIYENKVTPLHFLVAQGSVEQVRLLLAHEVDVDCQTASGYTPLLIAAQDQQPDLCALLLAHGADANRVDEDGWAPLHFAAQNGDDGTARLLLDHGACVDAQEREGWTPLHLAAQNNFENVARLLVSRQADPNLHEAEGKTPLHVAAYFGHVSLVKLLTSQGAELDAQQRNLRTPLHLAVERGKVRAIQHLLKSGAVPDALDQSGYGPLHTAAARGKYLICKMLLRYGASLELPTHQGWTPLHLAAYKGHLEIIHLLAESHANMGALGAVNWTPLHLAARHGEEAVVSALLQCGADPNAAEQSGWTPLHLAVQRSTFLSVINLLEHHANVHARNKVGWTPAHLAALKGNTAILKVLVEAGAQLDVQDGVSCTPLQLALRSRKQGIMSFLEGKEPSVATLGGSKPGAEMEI
T1 sequence (Q99640 whole entry): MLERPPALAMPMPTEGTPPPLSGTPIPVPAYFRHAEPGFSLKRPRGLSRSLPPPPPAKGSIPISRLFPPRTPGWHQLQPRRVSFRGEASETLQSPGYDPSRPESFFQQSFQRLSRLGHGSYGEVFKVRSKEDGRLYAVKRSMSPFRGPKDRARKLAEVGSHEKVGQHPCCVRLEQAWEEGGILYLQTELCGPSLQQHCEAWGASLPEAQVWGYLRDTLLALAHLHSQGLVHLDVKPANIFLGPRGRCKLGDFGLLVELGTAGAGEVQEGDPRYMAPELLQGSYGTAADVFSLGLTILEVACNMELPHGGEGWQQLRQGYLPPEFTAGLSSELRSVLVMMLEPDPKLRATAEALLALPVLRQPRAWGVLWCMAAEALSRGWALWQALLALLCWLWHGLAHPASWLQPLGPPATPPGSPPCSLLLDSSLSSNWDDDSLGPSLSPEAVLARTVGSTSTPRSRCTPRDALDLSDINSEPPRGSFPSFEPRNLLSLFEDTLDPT
T29 sequence (P11802 whole entry): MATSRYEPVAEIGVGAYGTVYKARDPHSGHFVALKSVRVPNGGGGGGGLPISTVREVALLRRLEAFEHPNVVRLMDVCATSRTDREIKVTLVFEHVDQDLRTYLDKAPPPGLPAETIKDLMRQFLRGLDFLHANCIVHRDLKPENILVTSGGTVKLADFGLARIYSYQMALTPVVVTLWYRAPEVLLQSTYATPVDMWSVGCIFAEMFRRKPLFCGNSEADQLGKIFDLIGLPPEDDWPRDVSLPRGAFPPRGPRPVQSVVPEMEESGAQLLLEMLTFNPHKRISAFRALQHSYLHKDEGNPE
T17 sequence (Q9UPZ9 whole entry): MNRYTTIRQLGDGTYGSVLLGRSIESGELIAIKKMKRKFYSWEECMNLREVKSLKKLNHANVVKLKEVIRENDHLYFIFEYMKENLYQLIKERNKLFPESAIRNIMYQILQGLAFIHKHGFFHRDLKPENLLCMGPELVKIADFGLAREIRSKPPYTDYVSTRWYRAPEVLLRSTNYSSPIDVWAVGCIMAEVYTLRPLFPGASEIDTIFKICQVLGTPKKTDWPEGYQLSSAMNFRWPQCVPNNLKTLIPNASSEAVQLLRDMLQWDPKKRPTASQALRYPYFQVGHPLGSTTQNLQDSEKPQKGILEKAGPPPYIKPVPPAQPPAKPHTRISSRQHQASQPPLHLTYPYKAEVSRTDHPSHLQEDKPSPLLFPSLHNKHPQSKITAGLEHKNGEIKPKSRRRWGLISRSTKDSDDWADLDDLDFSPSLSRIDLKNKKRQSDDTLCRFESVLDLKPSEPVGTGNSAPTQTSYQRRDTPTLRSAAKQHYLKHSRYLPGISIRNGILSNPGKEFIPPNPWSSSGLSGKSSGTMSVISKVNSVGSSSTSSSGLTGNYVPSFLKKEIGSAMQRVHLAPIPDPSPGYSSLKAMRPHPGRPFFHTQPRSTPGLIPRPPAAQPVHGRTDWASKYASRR
T19 sequence (P49137 whole entry): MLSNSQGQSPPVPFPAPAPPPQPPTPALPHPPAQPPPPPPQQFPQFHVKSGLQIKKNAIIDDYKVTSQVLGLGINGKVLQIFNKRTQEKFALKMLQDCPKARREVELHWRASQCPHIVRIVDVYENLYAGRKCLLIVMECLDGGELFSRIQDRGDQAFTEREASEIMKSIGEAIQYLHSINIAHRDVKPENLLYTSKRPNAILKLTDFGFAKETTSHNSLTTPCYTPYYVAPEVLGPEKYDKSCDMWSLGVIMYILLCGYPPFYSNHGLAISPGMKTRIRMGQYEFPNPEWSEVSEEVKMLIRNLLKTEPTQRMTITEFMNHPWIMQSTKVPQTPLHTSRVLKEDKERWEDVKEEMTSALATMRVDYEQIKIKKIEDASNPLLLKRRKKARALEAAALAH
T5 sequence (Q13554 whole entry): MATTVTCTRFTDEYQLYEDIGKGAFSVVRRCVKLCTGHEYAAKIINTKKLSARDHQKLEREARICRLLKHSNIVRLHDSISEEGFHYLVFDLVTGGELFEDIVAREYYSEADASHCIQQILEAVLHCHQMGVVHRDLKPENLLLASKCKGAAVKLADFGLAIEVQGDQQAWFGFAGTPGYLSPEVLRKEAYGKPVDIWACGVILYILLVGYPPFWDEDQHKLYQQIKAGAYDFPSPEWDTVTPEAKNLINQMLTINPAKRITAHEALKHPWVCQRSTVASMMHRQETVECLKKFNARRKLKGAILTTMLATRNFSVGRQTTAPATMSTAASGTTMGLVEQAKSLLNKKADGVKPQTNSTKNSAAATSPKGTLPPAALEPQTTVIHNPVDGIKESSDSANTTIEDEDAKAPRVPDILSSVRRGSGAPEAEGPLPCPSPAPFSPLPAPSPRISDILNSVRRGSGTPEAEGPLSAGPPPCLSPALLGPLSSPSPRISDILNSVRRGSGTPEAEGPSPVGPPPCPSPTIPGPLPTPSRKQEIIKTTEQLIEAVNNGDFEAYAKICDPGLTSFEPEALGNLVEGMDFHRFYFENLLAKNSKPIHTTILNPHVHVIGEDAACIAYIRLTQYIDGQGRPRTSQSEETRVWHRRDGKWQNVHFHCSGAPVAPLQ

C=CC(=O)N1CCC[C@@H](n2nc(-c3ccc(OCc4cccc(C)n4)c(Cl)c3)c3c(N)ncnc32)C1 [CHMFL-EGFR-26]
remaining binding at 1 µM [1]: 92%
remaining binding at 1 µM [2]: 100%
remaining binding at 1 µM [3]: 100%
remaining binding at 1 µM [4]: 100%
remaining binding at 1 µM [5]: 97%
remaining binding at 1 µM [6]: 100%
remaining binding at 1 µM [7]: 100%
remaining binding at 1 µM [8]: 100%
remaining binding at 1 µM [9]: 55%
remaining binding at 1 µM [10]: 95%
remaining binding at 1 µM [11]: 100%
remaining binding at 1 µM [12]: 0.7%
remaining binding at 1 µM [13]: 91%
remaining binding at 1 µM [14]: 67%
remaining binding at 1 µM [15]: 97%
remaining binding at 1 µM [16]: 99%
remaining binding at 1 µM [17]: 90%
remaining binding at 1 µM [18]: 67%
remaining binding at 1 µM [19]: 89%
remaining binding at 1 µM [20]: 82%
remaining binding at 1 µM [21]: 83%
GI50 [22]: 36 nM
GI50 [23]: 3.5 µM
GI50 [24]: 7.7 µM
GI50 [25]: 8.1 µM
GI50 [26]: 5.4 µM
GI50 [27]: 27 nM
GI50 [28]: 35 nM
remaining binding at 1 µM [29]: 29%
remaining binding at 1 µM [30]: 100%
remaining binding at 1 µM [31]: 100%
remaining binding at 1 µM [32]: 77%
remaining binding at 1 µM [33]: 100%
remaining binding at 1 µM [34]: 14%
remaining binding at 1 µM [35]: 94%
remaining binding at 1 µM [36]: 100%
remaining binding at 1 µM [37]: 95%
remaining binding at 1 µM [38]: 84%
